Laboratory results published in patent US8080582B2, “Derivatives of 8-epiblechnic acid and their effects on down-regulation of endothelin (ETA) receptor mRNA” (ScinoPharm Taiwan Ltd., priority 2008, dated 2011).
Entries after “also recorded” stand apart in the source; their conditions may differ. Where two headings read alike, the source gives them in different places.

Tests used:
Assay type in all cases: cell-based
[1] = tested on: breast cancer cells (MCF-7); experiment: MTT cell viability, breast cancer cells; conditions: MCF-7, different concentrations (0-0.5 mM), 48 hrs
Method: (§1) The cells (1×10^5 cells/well in 24-well plates) were cultured for 24 hrs. Different concentrations of Sal-B and its analogs (0, 50, 100, 150, 200, 250 μg/ml) were added to treat the cells. After treating for 48 hrs, 100 μl MTT solution was added to each well, and the plate was placed in an incubator for 1-4 hrs. After adding 400 μl DMSO to treat the cells for 30 min., 200 μl samples were collected and placed in a 96-well plate to conduct the absorption measurement at 550 nm.
(§2) Cancer cells were treated with Sal-B and EBA at concentrations of 0, 0.1, 0.2, 0.3, 0.4, 0.5 mM. After treating for 48 hrs, MTT was added, and then allowed to react for 3 hrs at 37° C. After that, DMSO was added and allowed to react for 30 min., the OD570 absorption values were measured. Cell viability was above 80% when nasopharyngeal cancer cells (Hone-1) were treated with […] Sal-B and EBA. […] But the cell viability remained above 70% for treating with 0.1 mM and 0.2 mM EBA. Similar results were obtained when prostate cancer cells (PC-3) were treated with the drugs: Cell viability was above 80% for treating PC-3 cells with 0.2 mM Sal-B or EBA.

[2] = tested on: endothelin receptor mRNA expression; experiment: PCR of endothelin receptor mRNA expression in vascular smooth muscle cells; conditions: 100 μg/ml, 48 hrs, PCR 25 or 30 reaction cycles
Method: Extraction of cellular RNA: Subculturing smooth muscle cells to 100-mm culture dishes. After the cells had filled the culture dishes, Sal-B and its analogs were added to treat the cells for 48 hrs. After that, 1×PBS solutions were added to wash the cells three times. After adding 1 ml TRIzol, the cells were scraped off and placed in 1.5 ml micro-centrifuge tubes. Following the addition of 0.2 ml chloroform to each tube, the tubes were shaken, left at room temperature for 3 min., and run in a centrifuge at 12,000 rpm for 15 min. The supernatant liquid was removed and the cells placed in new micro-centrifuge tubes. After adding an amount of isopropyl alcohol equivalent to one-half of the volume of the supernatant liquid, and mixing until homogeneous, the samples were allowed to stand at room temperature for 10 min. The supernatant liquid was removed after centrifugation at 12,000 rpm for 10 min. 1 ml 70% alcohol was added to wash out salts, followed by centrifugation for 5 min. and removal of supernatant liquid. The samples were dissolved in 50 μl DEPC-H2O after drying.
(1) cDNA synthesis: 1 μl Random hexamer primer (20 μM) and 1 μl dNTP(10 mm) were added to 3 μg RNA, which was allowed to react at 65° C. for 5 min., and then placed on ice promptly. […]

[3] = tested on: prostate cancer cells (PC-3); experiment: MTT cell viability, prostate cancer cells; conditions: for Cell viability at higher concentrations: PC-3, 0.3 mM (or higher), 48 hrs, MTT
Method: as §1, §2
MTT testing was employed to observe the viability of cancer cells after treating with Sal-B and the six synthetic analogs.

ETBR protein expression = experiment: Western blot of ETBR protein expression in vascular smooth muscle cells; conditions: 100 μg/ml, 48 hrs
Method: The smooth muscle cells (5×10^5 cells in 35 mm culture dish) were treated with Sal-B and its analogs for 48 hrs, and then a proteinase inhibitor solution was used to collect proteins from the cells.
The protein concentrations in the samples were calculated by using BSA as the standards to construct a standard curve. After mixing Bradford Protein assay reagent evenly with the standards or the samples, the OD595 absorption values were measured. Standard curve was constructed by plotting OD595 values of the BSA standards versus their concentrations. The protein concentrations of the samples were calculated from the standard curve.
Bio-Rad's Mini-Protean III Dual Slab Cell instrument was used. A 12% polyacrylamide separating gel solution was prepared and placed into a electrophoretic gel preparation device. Deionized water was added to flat the surface of the separating gel solution, and the water was poured off after the gel had coagulated. A stacking gel solution containing 5% polyacrylamide was added and then a comb was inserted. The comb was removed after the stacking gel had coagulated, and the gel was placed into an upright electrophoresis tank. A suitable amount of running buffer was added, and then the protein samples were loaded into the wells of stacking gel layer. […]

[4] = tested on: normal mammary gland cell line (A1N4); experiment: Cytotoxicity test on normal mammary gland cells
Method: as §1

Compound | Effect on cancer cell viability [1] | Endothelin receptor mRNA expression compared with control [2] | Cell viability at higher concentrations [3] | Viability of PC-3 cells as the concentration is increased ([3]; PC-3, MTT, increasing concentration, FIG. 1) | ETBR protein expression compared with control (ETBR protein expression) | Cytotoxicity to normal cells ([4]; A1N4 normal mammary gland cells, FIG. 2) | Cytotoxicity to normal cells [4]
O=C(/C=C/c1ccc(O)c2c1[C@H](C(=O)O[C@H](Cc1ccc(O)c(O)c1)C(=O)[O-])[C@@H](c1ccc(O)c(O)c1)O2)O[C@H](Cc1ccc(O)c(O)c1)C(=O)[O-].[Mg+2] [Sal-B, magnesium lithospermate B] | no significant effect on cancer cell viability | reduced as comparing with the control | the cell viability was reduced | reduced as the concentration of Sal-B was increased | no effect on ETBR protein expression | no significant difference was observed on the cytotoxicity results; also recorded: not highly toxic to normal cells | 
epiblechnic acid [EBA] | no significant effect on cancer cell viability | reduced as comparing with the control | did not significantly reduce the cell viability |  | no effect on ETBR protein expression |  | no significant difference was observed on the cytotoxicity results
